# Source: paper PMC11417675, “Systematic Evaluation of Tyrosine Kinase Inhibitors as OATP1B1 Substrates Using a Competitive Counterflow Screen” (Cancer Research Communications, 2024)
# Where two headings read alike, the source gives them in different places.
# Key:
# OATP1B1 [1] = target: T1, OATP1B1 (Homo sapiens, UniProt Q9Y6L6); test: Competitive counterflow (CCF) assay, efflux of preloaded [3H]-EβG in OATP1B1-overexpressing HEK293 cells; settings: for hit in CCF assay (efflux >50% relative to EβG): at all three tested concentrations (1, 10, 100 μmol/L); for efflux of preloaded radiolabeled EβG induced by control substrates: 100 μmol/L, 30 min, after 1 h preload with 0.01 μmol/L [3H]-EβG
# T1 sequence (Q9Y6L6 1-691): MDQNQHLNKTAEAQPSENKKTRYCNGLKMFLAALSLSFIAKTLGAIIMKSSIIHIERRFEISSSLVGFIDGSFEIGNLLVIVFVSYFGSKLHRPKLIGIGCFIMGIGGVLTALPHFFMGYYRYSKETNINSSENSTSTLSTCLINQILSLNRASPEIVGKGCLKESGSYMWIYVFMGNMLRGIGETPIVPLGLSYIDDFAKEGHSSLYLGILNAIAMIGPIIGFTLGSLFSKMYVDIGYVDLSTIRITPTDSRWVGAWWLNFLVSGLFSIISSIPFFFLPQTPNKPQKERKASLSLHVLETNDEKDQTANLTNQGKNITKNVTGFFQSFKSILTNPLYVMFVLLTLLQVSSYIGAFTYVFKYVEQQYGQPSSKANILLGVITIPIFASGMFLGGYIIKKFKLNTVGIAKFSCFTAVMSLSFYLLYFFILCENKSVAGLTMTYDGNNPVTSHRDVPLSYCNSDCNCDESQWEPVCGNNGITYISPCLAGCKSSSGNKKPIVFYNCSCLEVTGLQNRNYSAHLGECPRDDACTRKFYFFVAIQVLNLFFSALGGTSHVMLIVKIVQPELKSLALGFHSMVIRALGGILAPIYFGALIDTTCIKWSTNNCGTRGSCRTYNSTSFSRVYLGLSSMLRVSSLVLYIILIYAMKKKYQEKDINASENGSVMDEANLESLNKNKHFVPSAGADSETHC
# Protocol: Cellular accumulation assays were performed in human embryonic kidney cells (HEK293; RRID: CVCL_0045) that were genetically engineered to overexpress human OATP1B1 ([23]–[25]). Cell lines were authenticated by Applied Biosystems AmpFISTR Identifiler testing with PCR amplification. […] All cells were used within passage 30 and verified to be Mycoplasma-free using the MycoAlert Mycoplasma Detection Kit (Lonza). At 80% to 90% confluency, cells were seeded on poly-D-lysine–coated 96-well plates 24 hours prior to the assay (2,500 cells/well), and expression of OATP1B1 was induced with 1 μg/mL doxycycline in phenol red–free DMEM.
# The CCF assay uses OATP1B1-overexpressing HEK293 cells seeded and cultured as described above. During the study, cells were preincubated at room temperature (∼ 20°C) with 0.01 μmol/L EβG in prewarmed serum-free and phenol red–free DMEM for 1 hour. Following preincubation, each well was spiked with 1 μL of a stock solution containing 0.1, 1, or 10 mmol/L of positive control (EβG), negative control (glucose), test compound dissolved in Dimethylsulfoxide (DMSO), or DMSO only as a vehicle control. Following a 30-minute after incubation with a test compound, the assay was stopped by three consecutive washes with PBS at 4°C. Finally, cells were solubilized with 150 μL of 1% Triton X-100 in PBS for 2 hours at room temperature under constant agitation. A volume of 100 μL of cell lysate was transferred to clear-bottom 96-well isoplates, 200 μL of MicroScint-PS (PerkinElmer) scintillation fluid was added to each sample-containing well, and the plate was subsequently vortex-mixed for 30 seconds. Total radioactivity was determined on a MicroBeta microplate scintillation counter (PerkinElmer), and the resulting counts were then normalized to total protein as determined using a Pierce protein assay (Thermo Fisher Scientific).
# OATP1B1 [2] = settings: cited from earlier work; for reported to inhibit OATP1B1: literature reports, ref not given
# VEGFR2 = target: T2, VEGFR2 (Homo sapiens, UniProt P35968); test: IP-based VEGFR kinase assay (ADP-Glo) in OATP1B1-overexpressing vs vector control HEK293 cells; format: cell-based; settings: 10 μmol/L, 1 h; OATP1B1-overexpressing cells compared with control cells not overexpressing OATP1B1
# T2 construct: expressed in transfected cells; host or cells: HEK293 (OATP1B1-overexpressing or empty vector)
# T2 sequence (P35968 20-1356, species assumed): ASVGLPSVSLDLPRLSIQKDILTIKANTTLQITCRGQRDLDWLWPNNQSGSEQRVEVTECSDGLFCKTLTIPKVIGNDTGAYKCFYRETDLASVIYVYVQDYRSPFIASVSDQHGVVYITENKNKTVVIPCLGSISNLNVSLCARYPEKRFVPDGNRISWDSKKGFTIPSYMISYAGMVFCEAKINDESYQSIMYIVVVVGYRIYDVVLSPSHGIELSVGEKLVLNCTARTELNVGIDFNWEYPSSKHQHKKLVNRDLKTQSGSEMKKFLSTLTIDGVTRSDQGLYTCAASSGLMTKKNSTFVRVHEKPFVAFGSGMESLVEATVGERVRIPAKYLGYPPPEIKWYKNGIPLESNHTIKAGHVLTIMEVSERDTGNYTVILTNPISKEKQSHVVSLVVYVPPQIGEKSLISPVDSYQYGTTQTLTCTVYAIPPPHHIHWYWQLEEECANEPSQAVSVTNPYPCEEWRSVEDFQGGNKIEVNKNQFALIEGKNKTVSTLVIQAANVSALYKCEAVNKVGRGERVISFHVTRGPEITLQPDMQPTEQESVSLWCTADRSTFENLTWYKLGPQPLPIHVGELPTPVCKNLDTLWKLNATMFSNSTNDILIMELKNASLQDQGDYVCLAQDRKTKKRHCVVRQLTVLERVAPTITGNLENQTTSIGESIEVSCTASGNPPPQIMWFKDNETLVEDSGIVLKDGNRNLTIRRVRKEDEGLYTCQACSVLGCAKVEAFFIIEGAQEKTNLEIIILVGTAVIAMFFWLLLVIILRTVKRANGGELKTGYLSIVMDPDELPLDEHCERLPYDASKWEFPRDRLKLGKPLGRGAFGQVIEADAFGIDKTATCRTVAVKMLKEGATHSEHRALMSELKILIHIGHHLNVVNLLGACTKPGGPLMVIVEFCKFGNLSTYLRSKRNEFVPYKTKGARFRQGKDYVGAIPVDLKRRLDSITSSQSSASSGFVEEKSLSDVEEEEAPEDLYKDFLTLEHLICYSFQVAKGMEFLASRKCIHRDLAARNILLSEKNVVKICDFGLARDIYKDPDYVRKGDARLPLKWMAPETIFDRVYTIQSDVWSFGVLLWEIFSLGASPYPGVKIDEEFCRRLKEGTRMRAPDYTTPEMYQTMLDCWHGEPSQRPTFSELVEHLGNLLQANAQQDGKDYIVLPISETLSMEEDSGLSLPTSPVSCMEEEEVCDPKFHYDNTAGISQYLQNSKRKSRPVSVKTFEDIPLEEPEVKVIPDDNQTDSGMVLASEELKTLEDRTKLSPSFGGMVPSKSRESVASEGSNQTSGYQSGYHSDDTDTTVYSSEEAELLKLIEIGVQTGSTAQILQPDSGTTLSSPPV
# OATP2B1 = settings: General Comments; ref PMID#25165131; cited from earlier work
# OATP1A2 = settings: General Comments; ref PMID#25165131; cited from earlier work
# OCTN2 = test system: OCTN2; parameters: method as in PMID#25165131; settings: General Comments; ref PMID#25165131; cited from earlier work
smiles,measurement,setting,value
CO[C@]1(C(=O)N[C@@H](C)c2ccc(-n3cc(F)cn3)nc2)CC[C@H](c2nc(C)cc(Nc3cc(C)[nH]n3)n2)CC1 [Pralsetinib],pattern of efflux vs concentration in CCF assay,"OATP1B1 [1]; 1, 10 and 100 μmol/L",solely at lower concentrations
same,reported to inhibit OATP1B1,OATP1B1 [2],reported to inhibit OATP1B1
COc1cc2c(Nc3ccc(Br)cc3F)ncnc2cc1OCC1CCN(C)CC1 [Vandetanib],pattern of efflux vs concentration in CCF assay,"OATP1B1 [1]; 1, 10 and 100 μmol/L",clearly dependent on concentration
COc1cc(Nc2ncc(F)c(Nc3ccc4c(n3)N(COP(=O)(O)O)C(=O)C(C)(C)O4)n2)cc(OC)c1OC [Fostamatinib],hit in CCF assay (efflux >50% relative to EβG),OATP1B1 [1],hits
COC(=O)c1ccc2c(c1)NC(=O)/C2=C(\Nc1ccc(N(C)C(=O)CN2CCN(C)CC2)cc1)c1ccccc1 [Nintedanib],pattern of efflux vs concentration in CCF assay,"OATP1B1 [1]; 1, 10 and 100 μmol/L",clearly dependent on concentration
CC[C@H](C)C(=O)O[C@H]1C[C@H](O)C=C2C=C[C@H](C)[C@H](CC[C@@H](O)C[C@@H](O)CC(=O)O)[C@H]21 [pravastatin],efflux of preloaded radiolabeled EβG induced by control substrates,OATP1B1 [1],induced significant efflux
Cc1ccc(Nc2nccc(N(C)c3ccc4c(C)n(C)nc4c3)n2)cc1S(N)(=O)=O [Pazopanib],VEGFR kinase activity after pazopanib,VEGFR2,markedly reduced kinase activity
same,previously claimed to be substrates of OATP1B1,OATP1B1 [2],substrates of OATP1B1
same,reported to inhibit OATP1B1,OATP1B1 [2],reported to inhibit OATP1B1
C=CC(=O)Nc1cc(Nc2nccc(-c3cn(C)c4ccccc34)n2)c(OC)cc1N(C)CCN(C)C [Osimertinib],pattern of efflux vs concentration in CCF assay,"OATP1B1 [1]; 1, 10 and 100 μmol/L",clearly dependent on concentration
CNC(=O)c1cc(Oc2ccc(NC(=O)Nc3ccc(Cl)c(C(F)(F)F)c3)cc2)ccn1 [Sorafenib],hit in CCF assay (efflux >50% relative to EβG),OATP1B1 [1],hits
same,previously claimed to be substrates of OATP1B1,OATP1B1 [2],substrates of OATP1B1
"C[C@]12CC[C@@H]3c4ccc(O)cc4CC[C@H]3[C@@H]1CC[C@@H]2O[C@@H]1O[C@H](C(=O)O)[C@@H](O)[C@H](O)[C@H]1O [EβG, estradiol [6,7-^3H(N)]-17β-D-glucuronide]",efflux of preloaded radiolabeled EβG induced by control substrates,OATP1B1 [1],induced significant efflux
CCN(CC)CCNC(=O)c1c(C)[nH]c(/C=C2\C(=O)Nc3ccc(F)cc32)c1C [Sunitinib],pattern of efflux vs concentration in CCF assay,OATP1B1 [1],clearly dependent on concentration
FC(F)(F)c1ccc(CNc2ccc(Cc3c[nH]c4ncc(Cl)cc34)cn2)cn1 [Pexidartinib],pattern of efflux vs concentration in CCF assay,"OATP1B1 [1]; 1, 10 and 100 μmol/L",solely at lower concentrations
Cn1cnc2c(F)c(Nc3ccc(Br)cc3Cl)c(C(=O)NOCCO)cc21 [Selumetinib],pattern of efflux vs concentration in CCF assay,"OATP1B1 [1]; 1, 10 and 100 μmol/L",solely at lower concentrations
CS(=O)(=O)CCNCc1ccc(-c2ccc3ncnc(Nc4ccc(OCc5cccc(F)c5)c(Cl)c4)c3c2)o1 [Lapatinib],pattern of efflux vs concentration in CCF assay,"OATP1B1 [1]; 1, 10 and 100 μmol/L",solely at lower concentrations
CO[C@H]1/C=C/O[C@@]2(C)Oc3c(C)c(O)c4c(O)c(c(/C=N/N5CCN(C)CC5)c(O)c4c3C2=O)NC(=O)/C(C)=C\C=C\[C@H](C)[C@H](O)[C@@H](C)[C@@H](O)[C@@H](C)[C@H](OC(C)=O)[C@@H]1C [rifampin],efflux of preloaded radiolabeled EβG induced by control substrates,OATP1B1 [1],induced significant efflux
CCOc1cc2ncc(C#N)c(Nc3ccc(OCc4ccccn4)c(Cl)c3)c2cc1NC(=O)/C=C/CN(C)C [Neratinib],IC50,OATP2B1,2680 nM
same,IC50,OATP1A2,390 nM
same,OCTN2 inhibition (in words),OCTN2,No inhibition of OATP1B1 and OCTN2 was observed at concentrations up to 10 µM
OC[C@H]1OC(O)[C@H](O)[C@@H](O)[C@@H]1O (some centres unmarked) [glucose],efflux of preloaded radiolabeled EβG induced by control substrates,OATP1B1 [1],failed to induce efflux
O=C(c1ccc(F)c(F)c1Nc1ccc(I)cc1F)N1CC(O)([C@@H]2CCCCN2)C1 [Cobimetinib],pattern of efflux vs concentration in CCF assay,"OATP1B1 [1]; 1, 10 and 100 μmol/L",clearly dependent on concentration
COC(=O)N[C@@H](C)CNc1nccc(-c2cn(C(C)C)nc2-c2cc(Cl)cc(NS(C)(=O)=O)c2F)n1 [Encorafenib],reported to inhibit OATP1B1,OATP1B1 [2],reported to inhibit OATP1B1
Cc1cn(-c2cc(NC(=O)c3ccc(C)c(Nc4nccc(-c5cccnc5)n4)c3)cc(C(F)(F)F)c2)cn1 [Nilotinib],pattern of efflux vs concentration in CCF assay,"OATP1B1 [1]; 1, 10 and 100 μmol/L",solely at lower concentrations
CC(C)(C)c1nc(-c2cccc(NS(=O)(=O)c3c(F)cccc3F)c2F)c(-c2ccnc(N)n2)s1 [Dabrafenib],pattern of efflux vs concentration in CCF assay,"OATP1B1 [1]; 1, 10 and 100 μmol/L",solely at lower concentrations
Cc1cc(Nc2ncnc3ccc(NC4=NC(C)(C)CO4)cc23)ccc1Oc1ccn2ncnc2c1 [Tucatinib],pattern of efflux vs concentration in CCF assay,"OATP1B1 [1]; 1, 10 and 100 μmol/L",solely at lower concentrations
CNC(=O)c1ccccc1Sc1ccc2c(/C=C/c3ccccn3)n[nH]c2c1 [Axitinib],pattern of efflux vs concentration in CCF assay,"OATP1B1 [1]; 1, 10 and 100 μmol/L",solely at lower concentrations
same,previously claimed to be substrates of OATP1B1,OATP1B1 [2],substrates of OATP1B1
COc1cc2nccc(Oc3ccc(NC(=O)C4(C(=O)Nc5ccc(F)cc5)CC4)cc3)c2cc1OC [Cabozantinib],pattern of efflux vs concentration in CCF assay,"OATP1B1 [1]; 1, 10 and 100 μmol/L",solely at lower concentrations
C[C@@H](Oc1cc(-c2cnn(C3CCNCC3)c2)cnc1N)c1c(Cl)ccc(F)c1Cl [Crizotinib],pattern of efflux vs concentration in CCF assay,"OATP1B1 [1]; 1, 10 and 100 μmol/L",clearly dependent on concentration
same,previously claimed to be substrates of OATP1B1,OATP1B1 [2],substrates of OATP1B1
"C[C@]12CC[C@@H]3c4ccc(OS(=O)(=O)O)cc4CC[C@H]3[C@@H]1CCC2=O [E3S, estrone-3-sulfate]",efflux of preloaded radiolabeled EβG induced by control substrates,OATP1B1 [1],induced significant efflux
Cc1ccc(C(=O)Nc2ccc(CN3CCN(C)CC3)c(C(F)(F)F)c2)cc1C#Cc1cnc2cccnn12 [Ponatinib],Interaction: Substrate OATP1B1,OATP1B1 [2],N
same,OATP1B1 inhibition (in words),OATP1B1 [2],"Inhibits P-gp( IC50 =0.49uM), BCRP (IC50 = 0.013 µM). Did not inhibit OATP1B1, OATP1B3, OCT1, OCT2, OAT1, or OAT3. Not a substrate of OATP1B1, OATP1B3, or OCT1."
same,OATP1B1 substrate (in words),OATP1B1 [2],"Inhibits P-gp( IC50 =0.49uM), BCRP (IC50 = 0.013 µM). Did not inhibit OATP1B1, OATP1B3, OCT1, OCT2, OAT1, or OAT3. Not a substrate of OATP1B1, OATP1B3, or OCT1."
Cc1cc(Nc2ncc(Cl)c(Nc3ccccc3S(=O)(=O)C(C)C)n2)c(OC(C)C)cc1C1CCNCC1 [Ceritinib],pattern of efflux vs concentration in CCF assay,"OATP1B1 [1]; 1, 10 and 100 μmol/L",clearly dependent on concentration
Cc1nc(Nc2ncc(C(=O)Nc3c(C)cccc3Cl)s2)cc(N2CCN(CCO)CC2)n1 [Dasatinib],pattern of efflux vs concentration in CCF assay,"OATP1B1 [1]; 1, 10 and 100 μmol/L",solely at lower concentrations
